Experimental data: US20220409617A1, “Drug Formulations and Methods of Treatment for Metabolic Disorders” (The Regents of the University of California, priority 2019, published 2022)

What was measured:
3T3-L1 adipocytes = assay: Insulin-stimulated 2-deoxyglucose uptake; assay type: cell-based, mouse; conditions: 3 h, 893 10 μM, MK-2206 2 μM
Description: (§1) 3T3-L1 cells were maintained in DMEM with 10% FBS and 1% penicillin-streptomycin until induced to differentiate. 3T3-L1 pre-adipocytes were differentiated as described in (M. P. Valley, et al., Anal. Biochem. 505: 43-50, 2016, the disclosure of which is incorporated herein by reference) with slight modifications. Briefly, pre-adipocytes were grown to confluence. After 2 d, cells were induced with maintenance media containing 500 μM IBMX (15879, Sigma-Aldrich, St. Louis, Mo.), 1 μM dexamethasone (D4902, Sigma-Aldrich), 5 μg/mL bovine insulin (10516, Sigma-Aldrich), and 5 μM troglitazone (50-115-0786, ApexBio). Media was changed every 2-3 d for 7 d. On day 7 post-induction, media was changed to maintenance media+5 μg/mL bovine insulin. On day 9 post-induction, media was changed to maintenance media. Mature adipocytes were used 12-14 d post-induction for all experiments. LSL-KrasG12D mouse embryonic fibroblasts (MEFs) with and without Cre-mediated deletion of the STOP cassette were obtained from David Tuveson (Cold Spring Harbor Laboratory, Cold Spring Harbor N.Y., USA) in 2000. p53^flox/flox MEFs were derived in house (2015) from C57BL/6 mice using standard techniques and immortalized by transient expression of Cre recombinase and deletion of p53. MEFs were cultured and maintained in DMEM with 10% FBS and 1% penicillin-streptomycin. […]

DRP1 = DRP1 recruitment to mitochondria (DRP1/citrate synthase co-localization) and DRP1 western blot; assay type: cell-based, mouse; conditions: MEFs; 893 5 μM or YM201636 800 nM 3 h, then palmitate 250 μM 3 h
Description: Mature adipocytes were serum starved for 16 h then treated with vehicle, ceramide (50 or 100 μM), or sphingolipid-like compound 893 (5 or 10 μM) in serum-free media supplemented with 0.2% fatty-acid free BSA for 3 h after which 100 nM insulin was added for 15 min. To determine total DRP1 protein levels, 100,000 MEFs were seeded into a 6-well plate for 16 h, pre-treated for 3 h with vehicle or sphingolipid-like compound 893 (5 μM) followed by a 3 h incubation in 1% BSA+ethanol or BSA-palmitate (250 μM). Cells were washed once with cold PBS, then lysed in cold RIPA buffer (140 mM NaCl, 10 mM Tris pH 8.0, 1% Triton X-100, 0.1% SDS, 1% sodium deoxycholate) with cOmplete™ protease inhibitor (Cat no. 11697498001, Millipore Sigma, St. Louis, Mo.) and phosSTOP™ phosphatase inhibitor (Cat no. 4906837001, Millipore Sigma). Samples were incubated on ice for 10 min and insoluble material removed by centrifugation (9000×g for 10 min at 4° C.). Protein content was quantified in the supernatant using the Pierce™ BCA Protein Assay Kit (Thermo-Fisher Scientific, Waltham, Mass.). Equal amounts of protein were prepared in NuPAGE® LDS Sample Buffer (NP0007, Invitrogen) containing 50 mM DTT, and heated at 70° C. for 10 min. Proteins were resolved on a NuPAGE® 4-12% Bis-Tris protein gel (NP0336, Invitrogen, Carlsbad, Calif.) and subsequently transferred to a nitrocellulose membrane. Membranes were blocked in 5% BSA in TBST for 1 h, then probed with primary antibodies overnight at 4° C. […] Band intensity was quantified using Image Studio Lite V5.2 software (Li-COR).
MEFs were washed twice with PBS and fixed with 4% paraformaldehyde for 10 min at RT. […] NADH/NADPH autofluorescence was detected with 740 nm excitation and 450±50 nm detectors using a Mai Tai two-photon laser. Fluorescence microscopy was performed on a Zeiss LSM 780 confocal using a 63× oil objective with a […] numerical aperture (NA) or using a Nikon TE2000-S inverted epifluorescence microscope with a 100× oil objective (1.3 NA) and a Photometrics CoolSNAP ES2 monochrome CCD camera. […]

AKT = assay: Insulin-stimulated AKT activation, western blot; assay type: cell-based, mouse; conditions: 3T3-L1 adipocytes; 3 h pre-treatment, C2-ceramide 50 or 100 μM, 893 5 or 10 μM; insulin 100 nM 15 min
Description: as §1, with “experiments.” for “experiments. LSL-KrasG12D mouse embryonic fibroblasts (MEFs) with and without Cre-mediated deletion of the STOP cassette were obtained from David Tuveson (Cold Spring Harbor Laboratory, Cold Spring Harbor N.Y., USA) in 2000. p53^flox/flox MEFs were derived in house (2015) from C57BL/6 mice using standard techniques and immortalized by transient expression of Cre recombinase and deletion of p53. MEFs were cultured and maintained in DMEM with 10% FBS and 1% penicillin-streptomycin.”
Mature adipocytes were serum starved for 16 h then treated with vehicle, ceramide (50 or 100 μM), or sphingolipid-like compound 893 (5 or 10 μM) in serum-free media supplemented with 0.2% fatty-acid free BSA for 3 h after which 100 nM insulin was added for 15 min. […] Protein content was quantified in the supernatant using the Pierce™ BCA Protein Assay Kit (Thermo-Fisher Scientific, Waltham, Mass.). […]

[1] = Home-cage feeding study with suboptimal leptin (leptin sensitization); assay type: in vivo, mouse; conditions: lean chow-fed 18 week old mice; leptin 2 mg/kg i.p. or 893 120 mg/kg by gavage
From the text: Leptin is secreted by adipocytes in proportion to their triglyceride content, signaling to the CNS when peripheral energy stores are full and food consumption should decrease. In HFD-fed mice, chronic increases in adiposity lead to elevations in circulating leptin with no accompanying decrease in food intake, a state that has been termed leptin-resistant. Reducing leptin levels in the blood restores leptin signaling in the hypothalamus (S. Zhao, et al., 2019, cited supra). Thus, the sphingolipid-like compound 893 should function as a leptin-sensitizing agent. To test this model, 18 week old lean, male C57BL/6J mice were treated intraperitoneally with a suboptimal dose of recombinant leptin at ZT8.5 and food intake and body weight measured over the next 18 h. […] In summary, the reduction in food intake in sphingolipid-like compound 893-treated mice is consistent with the reversal of mitochondrial fragmentation in the hypothalamus and likely due in part to the re-sensitization of anorexigenic POMG neurons to leptin when plasma leptin levels are decreased.
Mice were singly housed and allowed to acclimate for 72 h before food intake was monitored. Food consumption was determined by monitoring the weight of food in the hopper. Initial food and body weight measurements were taken at ZT9 and final measurements were taken 16 h later to capture the active period where most consumption occurred. Home cage feeding studies were performed with C57BL/6J mice maintained on a HFD for 24 weeks (33 weeks of age), or ob/ob mice at 8 weeks of age. Mice received vehicle or 120 mg/kg sphingolipid-like compound 893 by gavage at ZT8.5. For experiments involving leptin, 18 week old, SD fed (16% kcal from fat, 2020×, Envigo) C57BL/6J mice received vehicle or 120 mg/kg sphingolipid-like compound 893 by gavage at ZT8.5. […] One ob/ob mouse died during Echo MRI for unknown reasons after 6 d of treatment with sphingolipid-like compound 893; data from this mouse was analyzed prior to death.

With `NC1(c2ccc(-c3nc4ccn5c(=O)[nH]nc5c4cc3-c3ccccc3)cc2)CCC1` [MK-2206, reference compound] the Insulin-stimulated glucose uptake (3T3-L1 adipocytes) was “impeded insulin-stimulated glucose uptake in adipocytes”.

With `Nc1ccc(C(=O)Nc2cccc(-c3nc(N4CCOCC4)c4oc5ncccc5c4n3)c2)cn1` [YM201636, reference compound] the “DRP1 recruitment to mitochondria in response to palmitate” value (DRP1) was “prevented DRP1 recruitment”.

In the case of `CCCCCCCCCCCCC/C=C/[C@@H](O)[C@H](CO)NC(C)=O` [ceramide, C2-ceramide, reference compound], the “Insulin-stimulated AKT activation” value (AKT) is reported as “interfered with insulin-stimulated AKT activation”.

B1: leptin: recombinant mouse leptin (498-OB, R&D Systems) (protein, UniProt P41160 22-167, looked up)
Leptin: VPIQKVQDDTKTLIKTIVTRINDISHTQSVSAKQRVTGLDFIPGLHPILSLSKMDQTLAVYQQVLTSLPSQNVLQIANDLENLRDLLHLLAFSKSCSLPQTSGLQKPESLDGVLEASLYSTEVVALSRLQGSLQDILQQLDVSPEC
In the case of B1, the “Food intake and body weight over 18 h, single agent” value [1] is reported as “not sufficient to decrease food intake or body weight”.
